row,melting point [°C],SMILES
1,116.5 to 116.8,"CCCCCCOC(=O)NCCc1nc(-c2ccc(-c3ccccc3)cc2)c[nH]1 [Example 255, hexyl 2-(4-[1,1′-biphenyl]-4-yl-1H-imidazol-2-yl)ethylcarbamate]"
2,210 to 212,"CC(C)N[C@H](c1nc(-c2ccc(F)cc2)c[nH]1)C1CCCCC1 [Example 261, N-{(S)-cyclohexyl[4-(4-fluorophenyl)-1H-imidazol-2-yl]methyl}-2-propanamine]"
3,200 to 202,"Fc1ccc(-c2c[nH]c([C@@H](NC3CCC3)C3CCCCC3)n2)cc1F [Example 262, N-{(S)-cyclohexyl[4-(3,4-difluorophenyl)-1H-imidazol-2-yl]methyl}cyclobutanamine]"
4,138.4,"CCCCOC(=O)NCCc1nc(-c2ccc(C3CCCCC3)cc2)c[nH]1 [Example 268, butyl 2-[4-(4-cyclohexylphenyl)-1H-imidazol-2-yl]ethylcarbamate]"
5,150,"O=C(NCCc1nc(-c2ccc(-c3ccccc3)cc2)c[nH]1)OC1CCCCC1 [Example 269, 4-[2-(2-{[(cyclohexyloxy)carbonyl]amino}ethyl)-1H-imidazol-4-yl]-1,1′-biphenyl]"
6,136 to 140,"FC(F)(F)Oc1ccc(-c2c[nH]c([C@@H](NC3CCC3)C3CCCCC3)n2)cc1 [Example 270, N-((S)-cyclohexyl{4-[4-(trifluoromethoxy)phenyl]-1H-imidazol-2-yl}methyl)-cyclobutanamine]"
7,140.5,"O=C(NCCc1nc(-c2ccc(-c3ccccc3)cc2)c[nH]1)OC1CCCC1 [Example 271, 4-[2-(2-{[(cyclopentyloxy)carbonyl]amino}ethyl)-1H-imidazol-4-yl]-1,1′-biphenyl]"
8,224 to 226,"CC(C)[C@@H](NC1CCCCC1)c1nc(-c2ccc(F)cc2)c[nH]1 [Example 276, N-{(1R)-1-[4-(4-fluorophenyl)-1H-imidazol-2-yl]-2-methylpropyl}-cyclohexanamine]"
9,132 to 134,"O=C(NCCc1nc(-c2ccc(-c3ccccc3)cc2)c[nH]1)OCC1CCCCC1 [Example 280, cyclohexylmethyl 2-(4-[1,1′-biphenyl]-4-yl-1H-imidazol-2-yl)ethylcarbamate]"
10,260 to 262,"Fc1ccc(-c2c[nH]c([C@@H](NC3CCCCC3)C3CCCCC3)n2)cc1 [Example 283, N-{(S)-cyclohexyl[4-(4-fluorophenyl)-1H-imidazol-2-yl]methyl}-cyclohexanamine]"
11,180 to 182,"FC(F)(F)c1cc(-c2c[nH]c([C@@H](NC3CCCCC3)C3CCCCC3)n2)cc(C(F)(F)F)c1 [Example 284, N-[(S)-{4-[3,5-bis(trifluoromethyl)phenyl]-1H-imidazol-2-yl}(cyclohexyl)methyl]cyclohexanamine]"
12,144 to 145,"O=C(NCCc1nc(-c2ccc(-c3ccccc3)cc2)c[nH]1)OCC1CCC1 [Example 285, cyclobutylmethyl 2-(4-[1,1′-biphenyl]-4-yl-1H-imidazol-2-yl)ethylcarbamate]"
13,149 to 150,"O=C(NCCc1nc(-c2ccc(F)cc2)c[nH]1)OCC1CCC1 [Example 286, cyclobutylmethyl 2-[4-(4-fluorophenyl)-1H-imidazol-2-yl]ethylcarbamate]"
14,182.3,"Fc1ccc(-c2c[nH]c([C@@H](NC3CCCCC3)C3CCCCC3)n2)cc1F [Example 287, N-{(S)-cyclohexyl[4-(3,4-difluorophenyl)-1H-imidazol-2-yl]methyl}cyclohexanamine]"
15,123.3,"COCCOC(=O)NCCc1nc(-c2ccc(-c3ccccc3)cc2)c[nH]1 [Example 288, 4-[2-(2-{[(2-methoxyethoxy)carbonyl]amino}ethyl)-1H-imidazol-4-yl]-1,1′-biphenyl]"
16,134.3,"Brc1cccc(-c2c[nH]c([C@@H](NCC3CCCCC3)C3CCCCC3)n2)c1 [Example 289, (S)-1-[4-(3-bromophenyl)-1H-imidazol-2-yl]-1-cyclohexyl-N-(cyclohexylmethyl)methanamine]"
17,184.8,"Fc1ccc(-c2c[nH]c([C@@H](NCC3CCCCC3)C3CCCCC3)n2)cc1 [Example 293, (S)-1-cyclohexyl-N-(cyclohexylmethyl)-1-[4-(4-fluorophenyl)-1H-imidazol-2-yl]methanamine]"
18,106 to 108,"CCCCOC(=O)NCCc1nc(-c2ccc(C(C)(C)C)cc2)c[nH]1 [Example 294, butyl 2-[4-(4-tert-butylphenyl)-1H-imidazol-2-yl]ethylcarbamate]"
19,99 to 100,"CCCCOC(=O)NCCc1nc(-c2ccc(Br)cc2)c[nH]1 [Example 299, butyl 2-[4-(4-bromophenyl)-1H-imidazol-2-yl]ethylcarbamate]"

# Further lines, the molecule ahead of its results:
row,SMILES,melting point [°C]
1,"CC[C@H](NC(=O)OC(C)(C)C)c1nc(-c2ccc(-c3ccccc3)cc2)c[nH]1 [Example 194, 4-(2-{(1S)-1-[(tert-butoxycarbonyl)amino]propyl}-1H-imidazol-4-yl)-1,1′-biphenyl]",138 to 140
2,"CC[C@H](NC(=O)OC(C)(C)C)c1nc(-c2ccccc2)c(-c2ccccc2)[nH]1 [Example 197, tert-butyl (1S)-1-(4,5-diphenyl-1H-imidazol-2-yl)propylcarbamate]",136 to 138
3,"CC[C@H](NCc1ccccc1)c1nc(-c2ccc(-c3ccccc3)cc2)c[nH]1 [Example 198, (1S)-N-benzyl-1-(4-[1,1′-biphenyl]4-yl-1H-imidazol-2-yl)-1-propanamine]",220 to 222
4,"CC(C)(C)COC(=O)NCCc1nc(-c2ccc(-c3ccccc3)cc2)c[nH]1 [Example 203, 4-[2-(2-{[(neopentyloxy)carbonyl]amino}ethyl)-1H-imidazol-4-yl]-1,1′-biphenyl]",162 to 164
5,"CC[C@H](NCc1ccccc1)c1nc(-c2ccccc2)c(-c2ccccc2)[nH]1 [Example 204, (1S)-N-benzyl-1-(4,5-diphenyl-1H-imidazol-2-yl)-1-propanamine]",182 to 184
6,"CCC[C@@H](NC(=O)OC(C)(C)C)c1nc(-c2ccccc2)c[nH]1 [Example 207, tert-butyl (1R)-1-(4-phenyl-1H-imidazol-2-yl)butylcarbamate]",156 to 158
7,"CCC[C@@H](NC(=O)OC(C)(C)C)c1nc(-c2ccc(-c3ccccc3)cc2)c[nH]1 [Example 208, 4-(2-{(1R)-1-[(tert-butoxycarbonyl)amino]butyl}-1H-imidazol-4-yl)-1,1′-biphenyl]",145.6
8,"CCC[C@@H](NCc1ccccc1)c1nc(-c2ccc(-c3ccccc3)cc2)c[nH]1 [Example 213, (1R)-N-benzyl-1-(4-[1,1′-biphenyl]-4-yl-1H-imidazol-2-yl)-1-butanamine]",78.6
9,"CCC[C@@H](NCc1ccccc1)c1nc(-c2ccccc2)c[nH]1 [Example 214, (1R)-N-benzyl-1-(4-phenyl-1H-imidazol-2-yl)-1-butanamine]",218 to 220
10,"O=C(NCCc1nc(-c2ccc(-c3ccccc3)cc2)c[nH]1)OCc1ccccc1 [Example 237, 4-[2-(2-{[(benzyloxy)carbonyl]amino}ethyl)-1H-imidazol-4-yl]-1,1′-biphenyl]",134 to 136
11,"CCCCOC(=O)NC(C)(C)c1nc(-c2ccc(-c3ccccc3)cc2)c[nH]1 [Example 238, 4-(2-{1-[(butoxycarbonyl)amino]-1-methylethyl}-1H-imidazol-4-yl)-1,1′-biphenyl]",170 to 172
12,"CC(C)COC(=O)NCCc1nc(-c2ccc(-c3ccccc3)cc2)c[nH]1 [Example 239, 4-(2-{2-[(isobutoxycarbonyl)amino]ethyl}-1H-imidazol-4-yl)-1,1′-biphenyl]",134 to 135
13,"CCCCOC(=O)N[C@@H](C)c1nc(-c2ccc(-c3ccccc3)cc2)c[nH]1 [Example 241, 4-(2-{(1S)-1-[(butoxycarbonyl)amino]ethyl}-1H-imidazol-4-yl)-1,1′-biphenyl]",118 to 122
14,"CCCCOC(=O)N[C@H](C)c1nc(-c2ccc(-c3ccccc3)cc2)c[nH]1 [Example 242, 4-(2-{(1R)-1-[(butoxycarbonyl)amino]ethyl}-1H-imidazol-4-yl)-1,1′-biphenyl]",114 to 116
15,"c1ccc(-c2c[nH]c([C@@H](NC3CCCCC3)C3CCCCC3)n2)cc1 [Example 243, N-[(S)-cyclohexyl(4-phenyl-1H-imidazol-2-yl)methyl]-cyclohexanamine]",240 to 242
16,"COC(=O)NCCc1nc(-c2ccc(-c3ccccc3)cc2)c[nH]1 [Example 244, 4-(2-{2-[(methoxycarbonyl)amino]ethyl}-1H-imidazol-4-yl)-1,1′-biphenyl]",177.2
17,"CCCOC(=O)NCCc1nc(-c2ccc(-c3ccccc3)cc2)c[nH]1 [Example 245, 4-(2-{2-[(propoxycarbonyl)amino]ethyl}-1H-imidazol-4-yl)-1,1′-biphenyl]",141.2
18,"CCOC(=O)NCCc1nc(-c2ccc(-c3ccccc3)cc2)c[nH]1 [Example 246, 4-(2-{2-[(ethoxycarbonyl)amino]ethyl}-1H-imidazol-4-yl)-1,1′-biphenyl]",132.5
19,"CC(C)(NC(=O)OCc1ccccc1)c1nc(-c2ccc(-c3ccccc3)cc2)c[nH]1 [Example 247, 4-[2-(1-{[(benzyloxy)carbonyl]amino}-1-methylethyl)-1H-imidazol-4-yl]-1,1′-biphenyl]",148 to 152
20,"c1ccc(-c2ccc(-c3c[nH]c(CCNC4CCCCC4)n3)cc2)cc1 [Example 249, N-[2-(4-[1,1′-biphenyl]4-yl-1H-imidazol-2-yl)ethyl]-cyclohexanamine]",207 to 210
21,"CCCCOC(=O)NCCc1nc(-c2ccc(F)cc2)c[nH]1 [Example 251, butyl 2-[4-(4-fluorophenyl)-1H-imidazol-2-yl]ethylcarbamate]",87
22,"Brc1cccc(-c2c[nH]c(CNC3CCCCC3)n2)c1 [Example 254, N-{[4-(3-bromophenyl)-1H-imidazol-2-yl]methyl}cyclohexanamine]",202 to 204
23,"CCCCOC(=O)NCCc1nc(-c2ccc(-c3ccc(Br)cc3)cc2)c[nH]1 [Example 281, 4-bromo-4′-(2-{2-[(butoxycarbonyl)amino]ethyl}-1H-imidazol-4-yl)-1,1′-biphenyl]",166

# From patent US7291641B2, “Derivatives of heterocycles with 5 members, their preparation and their use as medicaments” (Societe de Conseils de Recherches et d'Applications …, priority 1999, dated 2007)
